Laboratory results: paper PMC8346995, “Synthesis, Characterization, In Vitro Anticancer Potentiality, and Antimicrobial Activities of Novel Peptide–Glycyrrhetinic-Acid-Based Derivatives” (Molecules, 2021)
≈ marks a conversion by molar mass, not a printed value. Residues, ends and D or L forms follow the SMILES beside them. *: point of attachment. X1 = CC1(C(=O)*)CCC2(C)CCC3(C)C(=CC(=O)C4C5(C)CCC(O)C(C)(C)C5CCC43C)C2C1

Key:
[1] = test system: Streptococcus pneumonia RCMB 010010; assay: Well diffusion assay, Streptococcus pneumonia; type: cell-based; conditions: Streptococcus pneumonia RCMB 010010, well diffusion
Protocol: (§1) The newly synthesized peptides 1–8 (compound 6 was not tested) was evaluated for their antimicrobial activity of against three pathogenic Gram-positive bacteria (Staphylococcus aureus ATCC25923, Streptococcus pneumoniaRCMB 010010, and Micrococcus Luteus), three pathogenic Gram-negative bacteria viz. Escherichia coli ATCC25922, Pseudomonas aeruginosa ATCC7853, and Proteus vulgaris RCMB 010085, and the yeast Candida albicans using the well diffusion method. […] The obtained data were documented for each derivative as the average diameter of the inhibition zones (IZ) in mm for the bacterial or the yeast growth around the discs (Table 2). […] Although Micrococcus Luteus bacteria is a normal commensal of human skin and the upper respiratory tract, it acts as an opportunistic pathogen and has been associated with various diseases including meningitis, septic arthritis, and endocarditis. […] Antimicrobial activity of the tested chemical peptides was determined by the well diffusion method for pathogenic bacteria having Gram-positive bacteria (Staphylococcus aureus ATCC25923, Streptococcus pneumonia, and Micrococcus luteus) and Gram-negative bacteria (Escherichia coli ATCC25922, Pseudomonas aeruginosa ATCC7853, and Proteus sp.) and Candida albicans as human pathogen yeast using the well diffusion method.

[2] = test system: human colon HCT-116 cancer cell line; assay: MTT cytotoxicity assay, colon HCT-116 cancer cell line; conditions: for IC50: Homo sapiens, HCT-116, read-out: IC50 (µg/mL) ± SD HCT-116
Protocol: (§2) Accordingly, all the newly synthesized GA-based peptides except 1 and 6 were screened for their cytotoxicity against three different human cancer cell lines: MCF-7, HCT-116, and HepG-2 cell lines at different concentrations (10, 5, 2.5, 1.25, and 0.625 µg/mL).
(§3) Human breast MCF-7, colon HCT-116, and liver HepG-2 carcinoma cell line were taken from Vacsera (Giza, Egypt). The culture was retained in RPMI 1640 medium with 1% antibiotic–antimycotic mixture (25 μg/mL amphotericin B, 10,000 μg/mL streptomycin sulfate, and 10,000 U/mL potassium penicillin), 1% L-glutamine, and complemented by 10% heat inactivated fetal bovine serum. […] This experiment was carried out according to the reported MTT assay method, and the absorbance was measured at 595 nm.

[3] = test system: Pseudomonas aeruginosa ATCC7853; assay: Well diffusion assay, Pseudomonas aeruginosa; type: cell-based
Protocol: as §1

[4] = test system: human breast MCF-7 cancer cell line; assay: MTT cytotoxicity assay, breast MCF-7 cancer cell line; type: cell-based; conditions: for cytotoxicity percentage: MCF-7, 10 µg/mL; for IC50: Homo sapiens, MCF7, MTT, mean of three replicates, read-out: IC50 (µg/mL) ± SD MCF-7
Protocol: as §2, §3

[5] = test system: human normal skin fibroblasts cell line BJ-1; assay: Cytotoxicity against normal skin fibroblasts BJ-1; type: cell-based; conditions: BJ-1, 10 µg/mL
Protocol: The frequency and severity of side effects to normal cells at therapeutic levels is one of the most critical factors that distinguish different anticancer drugs from each other. Accordingly, the GA peptides 1–8 were furthermore screened for their cytotoxicity at 10 µg/mL against the human normal skin fibroblasts cell line BJ-1 to determine their safety upon normal cells (Figure 4).

[6] = test system: Escherichia coli ATCC25922; assay: Well diffusion assay, Escherichia coli; type: cell-based
Protocol: as §1

[7] = test system: Staphylococcus aureus ATCC25923; assay: Well diffusion assay, Staphylococcus aureus; type: cell-based
Protocol: as §1

Micrococcus Luteus = assay: Well diffusion assay, Micrococcus Luteus; type: cell-based
Protocol: as §1

Candida albicans = assay: Well diffusion assay, Candida albicans; type: cell-based
Protocol: as §1

[8] = test system: Proteus vulgaris RCMB 010085; assay: Well diffusion assay, Proteus vulgaris; type: cell-based; conditions: Proteus vulgaris RCMB 010085, well diffusion
Protocol: as §1

MCF-7 cells = assay: DNA fragmentation through DPA assay in MCF-7 cells; type: cell-based, human; conditions: treated MCF-7 cells; untreated 7.8%
Protocol: Caspases are a family of cysteine proteases that are responsible for launching the programmed cell death (apoptosis). […] Cell shrinkage, chromatin condensation, and DNA fragmentation are all apoptosis events, which need the involvement of caspase-7and caspase-3 [48, 54, 56].
Assessment of DNA fragmentation of the cells was done, as described by the reported method. Briefly, the cells were lysed for 15 min on ice with 0.5% (v/v) Triton X-100, 20 mM EDTA, and […] Tris (pH 8.0). Then, the cells were centrifuged to separate intact chromatin from DNA fragments for 20 min, at 27,000 Xg. Measurement of the amount of DNA was done using a diphenylamine reagent, and the optical density was measured at 600 nm.

[9] = test system: human liver cancer (HepG-2) cell line; assay: MTT cytotoxicity assay, liver HepG-2 cancer cell line; type: cell-based
Protocol: as §2, §3

Row | Compound | melting point | Diameter of Inhibition Zone (mm) [1] | cytotoxicity percentage ([2]; HCT-116, 10 µg/mL) | Diameter of Inhibition Zone (mm) [3] | cytotoxicity percentage [4] | cytotoxic effect on normal cells BJ-1 [5] | Diameter of Inhibition Zone (mm) [6] | Diameter of Inhibition Zone (mm) [7] | Diameter of Inhibition Zone (mm) (Micrococcus Luteus) | Diameter of Inhibition Zone (mm) (Candida albicans) | IC50 [2] | IC50 [4] | Diameter of Inhibition Zone (mm) [8] | percentage of DNA fragmentation (MCF-7 cells) | cytotoxicity percentage ([2]; human, 10 µg/mL) | cytotoxicity percentage ([9]; HepG-2, 10 µg/mL) | IC50 ([9]; Homo sapiens, HepG2, MTT, mean of three replicates, read-out: IC50 (µg/mL) ± SD HepG-2)
1 | CCOC(=O)CNC(=O)CNC(=O)C1(C)CCC2(C)CCC3(C)C(=CC(=O)C4C5(C)CCC(O)C(C)(C)C5CCC43C)C2C1 (stereo not shown) [Compound 1, Ethyl 2-(2-(10-Hydroxy-2,4a,6a,6b,9,9,12a-heptamethyl-13-oxo-1,2,3,4,4a,5,6,6a,6b,7,8,8a,9,10,11,12,12a,12b,13,14b-icosahydropicene-2-carboxamido)acetamido)acetate] | 160 to 162 °C | 15 ± 0.16 mm | weak effect | 18 ± 0.15 mm | 65.3% | 7% | 20 ± 0.25 mm | 15 ± 0.16 mm | 30 ± 0.21 mm | – | – | – | – | – | – | – | –
2 | CC(=O)N1CCN(c2ccc(OCC3COC(Cn4ccnc4)(c4ccc(Cl)cc4Cl)O3)cc2)CC1 (stereo not shown) [KC, ketoconazole, reference compound] | – | – | – | – | – | – | – | – | – | 22.8 ± 0.10 mm | – | – | – | – | – | – | –
3 | CCCC(NC(=O)C(CC(C)C)NC(=O)OC(C)(C)C)C(=O)OC1CCC2(C)C(CCC3(C)C2C(=O)C=C2C4CC(C)(C(=O)NCC(=O)NCC(=O)OCC)CCC4(C)CCC23C)C1(C)C (stereo not shown) [Compound 2, 11-(2-(2-Ethoxy-2-oxoethylamino)-2-oxoethylcarbamoyl)-4,4,6a,6b,8a,11,14b-heptamethyl-14-oxo-1,2,3,4,4a,5,6,6a,6b,7,8,8a,9,10,11,12,12a,14,14a,14b-icosahydropicen-3-yl 2-(2-(tert-Butoxycarbonylamino)-4-methylpentanamido)pentanoate] | 169 to 171 °C | 12 ± 0.82 mm | 92.63% | 15 ± 0.25 mm | – | – | 18 ± 0.14 mm | 17 ± 0.11 mm | 30 ± 0.13 mm | – | 70.3 ± 0.9 µg/mL (≈ 76 µM) | 7.7 ± 1.3 µg/mL (≈ 8.32 µM) | – | – | – | – | –
4 | COC(=O)C(CC(C)C)NC(=O)CNC(=O)CNC(=O)C1(C)CCC2(C)CCC3(C)C(=CC(=O)C4C5(C)CCC(O)C(C)(C)C5CCC43C)C2C1 (stereo not shown) [Compound 6, Methyl 2-(2-(2-(10-Hydroxy-2,4a,6a,6b,9,9,12a-heptamethyl-13-oxo-1,2,3,4,4a,5,6,6a,6b,7,8,8a,9,10,11,12,12a,12b,13,14b-icosahydropicene-2-carboxamido)acetamido)acetamido)-4-methylpentanoate] | 170 to 172 °C | – | weak effect | – | weak cytotoxic effect | – | – | – | – | – | – | – | – | – | – | – | –
5 | CC1(C(=O)NCC(=O)NCC(=O)O)CCC2(C)CCC3(C)C(=CC(=O)C4C5(C)CCC(O)C(C)(C)C5CCC43C)C2C1 (stereo not shown) [Compound 3, 2-(2-(10-Hydroxy-2,4a,6a,6b,9,9,12a-heptamethyl-13-oxo-1,2,3,4,4a,5,6,6a,6b,7,8,8a,9,10,11,12,12a,12b,13,14b-icosahydropicene-2-carboxamido)acetamido)acetic acid] | 207 to 209 °C | 17 ± 0.21 mm | 97.66% | 15 ± 0.18 mm | – | 2% | 16 ± 0.31 mm | 17 ± 0.32 mm | 30 ± 0.25 mm | 12 ± 0.23 mm | 7.4 ± 0.4 µg/mL (≈ 12.7 µM) | 5.1 ± 0.7 µg/mL (≈ 8.72 µM) | 17 ± 0.17 mm | – | – | – | –
6 | COc1cc2c(c(OC)c1OC)-c1ccc(OC)c(=O)cc1[C@@H](NC(C)=O)CC2 [colchicine, reference compound] | – | – | – | – | – | – | – | – | – | – | – | – | – | 40.7% | – | – | –
7 | CCOC(=O)CNC(=O)CNC(=O)CNC(=O)CNC(=O)C1(C)CCC2(C)CCC3(C)C(=CC(=O)C4C5(C)CCC(O)C(C)(C)C5CCC43C)C2C1 (stereo not shown) [Compound 4, Ethyl 1-(10-Hydroxy-2,4a,6a,6b,9,9,12a-heptamethyl-13-oxo-1,2,3,4,4a,5,6,6a,6b,7,8,8a,9,10,11,12,12a,12b,13,14b-icosahydropicen-2-yl)-1,4,7,10-tetraoxo-2,5,8,11-tetraazatridecan-13-oate] (X1-GGGG-OEt) | 130 to 133 °C | 11 ± 0.24 mm | – | 13 ± 0.16 mm | – | – | 13 ± 0.15 mm | 10 ± 0.13 mm | 29 ± 0.13 mm | 15 ± 0.12 mm | 73 ± 1.4 µg/mL (≈ 100 µM) | 6.1 ± 0.4 µg/mL (≈ 8.39 µM) | 12 ± 0.23 mm | – | 84.80% | – | –
8 | COC(=O)C(CC(C)C)NC(=O)CNC(=O)CNC(=O)C1(C)CCC2(C)CCC3(C)C(=CC(=O)C4C5(C)CCC(OC(=O)CNC(=O)CNC(=O)OC(C)(C)C)C(C)(C)C5CCC43C)C2C1 (stereo not shown) [Compound 8, Methyl 2-(2-(2-(10-(2-(2-(Tert-butoxycarbonylamino)acetamido)acetoxy)-2,4a,6a,6b,9,9,12a-heptamethyl-13-oxo-1,2,3,4,4a,5,6,6a,6b,7,8,8a,9,10,11,12,12a,12b,13,14b-icosahydropicene-2-carboxamido)acetamido)acetamido)-4-methylpentanoate] | – | 12 ± 0.22 mm | 97.10% | 14 ± 0.16 mm | – | – | 15 ± 0.16 mm | 13 ± 0.24 mm | 30 ± 0.17 mm | – | 60.7 ± 0.6 µg/mL (≈ 65.5 µM) | 6.9 ± 1.1 µg/mL (≈ 7.45 µM) | – | – | – | – | –
9 | CNC(C)C1CCC(N)C(OC2C(N)CC(N)C(OC3OCC(C)(O)C(NC)C3O)C2O)O1 (stereo not shown) [GM, gentamicin, reference compound] | – | 27.2 ± 0.80 mm | – | 24.41 ± 0.18 mm | – | – | 26.3 ± 0.15 mm | 25.4 ± 0.18 mm | 24.4 ± 0.72 mm | – | – | – | 20.0 ± 0.30 mm | – | – | – | –
10 | CC(C)CC(NC(=O)CNC(=O)CNC(=O)C1(C)CCC2(C)CCC3(C)C(=CC(=O)C4C5(C)CCC(O)C(C)(C)C5CCC43C)C2C1)C(=O)O (stereo not shown) [Compound 7, 2-(2-(2-(10-Hydroxy-2,4a, 6a, 6b, 9,9, 12a-heptamethyl-13-oxo-1,2,3,4,4a, 5,6,6a, 6b, 7,8,8a, 9, 10, 11, 12, 12a, 12b, 13, 14b-icosahydropicene-2-carboxamido)acetamido)acetamido)-4-methylpentanoic Acid] | 210 to 212 °C | – | 98.06% | 13 ± 0.14 mm | – | – | 15 ± 0.21 mm | – | 30 ± 0.11 mm | – | 3 ± 1.1 µg/mL (≈ 4.3 µM) | 3.7 ± 0.2 µg/mL (≈ 5.3 µM) | 12 ± 0.14 mm | – | – | 96.76% | 3.3 ± 0.1 µg/mL (≈ 4.73 µM)
